According to publication PMC8406298, “Discovery of Fungus-Specific Targets and Inhibitors Using Chemical Phenotyping of Pathogenic Spore Germination” (mBio, 2021):
Where “and” joins values, the source holds several entries; their conditions need not be identical. Equal values may be shown once. Read-outs that look alike come from different tables or passages of the source.

What was measured:
Cryptococcus spores = test: Quantitative germination assay (QGA), automated microscopy of spore germination; type: cell-based, Cryptococcus neoformans serotype D (deneoformans); conditions: for germination inhibition phenotype (chemical phenotype) in QGA: at phenotypic concentration
Procedure: In this automated microscopy-based assay, germination progression of spores is monitored as a function of changes in cell morphology over time (spores are small and oval; yeast are large and circular). Individual spores in a population (∼1 × 10^4 per sample) are measured to determine size (area) and shape (aspect ratio) from the onset of germination, and the data are collected for each cell over the time of germination (Fig. 1A).
Germination assays were modified from those described by Barkal et al. to introduce automation, increase throughput, and refine assay consistency ([12]). Briefly, 384-well plates (Thermo Scientific 142762) were loaded with 10^5 spores per well, and at 0 h, synthetic medium plus 2% dextrose (SD medium) containing the compounds of interest was added to the sample (final volume of 40 μl). All compounds were tested initially at 80 μM; however, concentrations were changed on a case-by-case basis for subsequent experiments. All assays and controls were performed with a final concentration of 0.8% DMSO (the compound solvent) unless specified otherwise. Spores were germinated at 30°C in a humidified chamber, and the same ∼5 × 10^3 cells were monitored every 2 h for 16 h. Imaging was performed on a Ti2 Nikon microscope, and each condition was visualized in a minimum of two individual wells with three fields of view acquired from each well. All images were analyzed as described previously based on cell shape and size using ImageJ. The population ratios of spores, intermediates, and yeast were determined. Error bars in plots are based on the variation among all fields of view acquired. Level of germination was determined by quantifying the decrease in the proportion of spores in a population, and rates were quantified by determining the change in this proportion over time. For all two-dimensional histograms, the x axis represents area from 0 μm^2 to 25 μm^2, and the y axis represents the aspect ratio from 0.4 to 1.
Cycloheximide (0.078 μM to 80 μM) (Dot Scientific, Inc. DSC81040-1), G418 (1.6 mM) (Fisher Scientific AAJ6267106), and puromycin (20 mM) (Dot Scientific, Inc. DSP33020-0.025) were tested with no DMSO (all were water soluble), whereas anisomycin (62.5 μM) (Sigma-Aldrich A9789-5MG) was tested in 2.5% DMSO.
Furcarbanil (80 μM) (Sigma-Aldrich T313122), rotenone (10 μM) (Fisher Scientific 501687383), and antimycin A (2.5 μM) (Santa Cruz Biotechnology, Inc. sc-202467A) were all tested in 0.8% DMSO, and TTFA (200 μM) (Sigma-Aldrich 88300-5G) was tested in 3% DMSO.

[1] = tested on: normal human dermal fibroblasts (NHDF) cells; test: Fibroblast cytotoxicity (CellTiter-Glo); type: cell-based; conditions: at concentrations as high as 80 μM; dose-response 0.5 to 80 μM
Outline: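 Normal human dermal fibroblasts, 1 × 10^3 per well, exposed to compounds at 10 μM for 72 h at 37°C. Viability read as ATP-dependent CellTiter-Glo luminescence. Dose-response runs titrated compounds from 80 μM to 0.5 μM in duplicate.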

Compound	phenotypic concentration (concentration showing the germination phenotype in QGA) (Cryptococcus spores)	germination inhibition phenotype (chemical phenotype) in QGA (Cryptococcus spores)	other results
O=C(Nc1nc2c(Br)cccc2s1)C1CC1 [PubChem CID 7202929]	10 µM	asynchrony	
CCn1c(CSc2ccccc2)nc2ccccc21 [PubChem CID 2992099]	80 µM	slow down	
O=C(CSCc1ccccc1)N1CCC(c2cccs2)CC1 [PubChem CID 71786876]	80 µM	asynchrony	
Cc1nc(NCc2ccccc2)c2ccsc2n1 [A5]			cytotoxicity against fibroblasts [1]: < 20%; inhibition at 5 µM (Cryptococcus spores; Cryptococcus, at 5 μM): > 80%
COc1ccc(SCCCC(=O)Nc2ncnc3sccc23)cc1 [A8]		asynchrony	
CN(C)CCN(C(=O)c1c[nH]c2ccccc12)c1nc2ccc(OC(F)(F)F)cc2s1.Cl [PubChem CID 71782913]	20 µM	asynchrony	
O=C(CSCc1ccccc1)N1CCC(c2ccsc2)CC1 [PubChem CID 71786985]	80 µM	asynchrony	
Nc1nc(-c2ccc(Oc3ccccc3)cc2)cs1 [PubChem CID 780598]	20 µM	bimodal	
COc1cccc2cc(-c3csc(NN=C4CCN(C)CC4)n3)c(=O)oc12 [PubChem CID 4913014]	20 µM	asynchrony	
Cc1ccc(OCCn2c(C)nc3ccccc32)cc1 [PubChem CID 790960]	80 µM	slow down	
CC(C)(C)c1ccc(-c2csc(N)n2)cc1 [PubChem CID 673711]	5 µM	bimodal	
NNc1nc2cc3c(cc2s1)OCCO3 [PubChem CID 2771030]			germination inhibition phenotype in QGA (Cryptococcus spores; at 2.5 µM): bimodal; germination inhibition phenotype in QGA (Cryptococcus spores; at higher concentrations (5 µM)): combination phenotype of “bimodal” and “slow end”; phenotypic concentration (concentration showing the germination phenotype in QGA) (Cryptococcus spores; listed as G3): 2.5 µM and 5 µM
Cc1cc(C)c2sc(NN)nc2c1 [PubChem CID 2049855]		combination of the “morphological variability” and the “slow end” phenotypes	phenotypic concentration (concentration showing the germination phenotype in QGA) (Cryptococcus spores; listed as G2): 20 µM and 40 µM
Cc1ccc(-c2nnc(Cn3cnc4ccccc43)o2)cc1 [PubChem CID 16456942]	5 µM	slow down	
O=C(CCc1ccccc1Br)N1CCC(c2cccs2)CC1 [PubChem CID 71807060]	40 µM	asynchrony	
CCc1ccccc1NC(=O)c1cc(C)oc1C [B1]	80 µM		
CCCCSc1nc2ccc(C)cc2[nH]1 [PubChem CID 2129690]	80 µM	slow down	
Nc1nc(COc2ccc3ccccc3c2)cs1 [PubChem CID 973573]	10 µM	asynchrony	
O=C(NC1CCCC1)c1csc(Nc2ccccc2)n1 [PubChem CID 30860168]	10 µM	asynchrony	

Compound	phenotypic concentration (concentration showing the germination phenotype in QGA) (Cryptococcus spores)	germination inhibition phenotype (chemical phenotype) in QGA (Cryptococcus spores)	other results
O=C(CCSc1ccccc1)N1CCC(c2cccs2)CC1 [PubChem CID 71786877]	80 µM	asynchrony	
Cc1nc(NC(=O)CCc2ccccc2)sc1C [PubChem CID 733834]	40 µM	morphological variability	
CN[C@@H]1[C@@H](O)[C@@H](O[C@@H]2[C@@H](O)[C@H](O[C@H]3O[C@H]([C@@H](C)O)[C@@H](O)[C@H](O)[C@H]3N)[C@@H](N)C[C@H]2N)OC[C@]1(C)O [Geneticin, reference compound]		slow-down	
Cc1ccccc1OCCn1cnc2ccccc21 [PubChem CID 749608]	10 µM	slow down	
C=C(C)[C@H]1Cc2c(ccc3c2O[C@@H]2COc4cc(OC)c(OC)cc4[C@@H]2C3=O)O1 [rotenone, reference compound]	10 µM	asynchrony	
CCc1ccc2nc(N)sc2c1 [PubChem CID 773093]	5 µM	slow end	
ClC1(Cl)CC1Cn1cnc2ccccc21 (stereo not drawn) [PubChem CID 2936975]	40 µM	slow down	
O=C(CCc1ccccc1Br)N1CCC(c2ccsc2)CC1 [PubChem CID 71807075]	40 µM	asynchrony	
c1ccc(OCCCCSc2nc3ccccc3[nH]2)cc1 [PubChem CID 1653635]	80 µM	slow down	
COc1ccc(C[C@H]2NC[C@H](O)[C@H]2OC(C)=O)cc1 [anisomycin, reference compound]		slow-down	
Cc1ccccc1OCCSCc1nc2ccccc2[nH]1 [PubChem CID 1589778]	80 µM	slow down	
COc1ccc(/C=C/c2nc3ccccc3[nH]2)cc1 [PubChem CID 5769808]	20 µM	slow down	
O=C(c1cc(-c2ccco2)on1)N1CCC(c2cccs2)CC1 [PubChem CID 71786870]	40 µM	asynchrony	
CCCCCC[C@H]1C(=O)O[C@H](C)[C@H](NC(=O)c2cccc(NC=O)c2O)C(=O)O[C@@H](C)[C@@H]1OC(=O)CC(C)C [antimycin A, reference compound]	2.5 µM	asynchrony	
COc1ccc(C[C@H](N)C(=O)N[C@H]2[C@@H](O)[C@H](n3cnc4c(N(C)C)ncnc43)O[C@@H]2CO)cc1 [puromycin, reference compound]		slow-down	
O=C(NCc1ccnc(-c2cccs2)c1)c1nc2ccccc2s1 [PubChem CID 91630328]	40 µM	asynchrony	
C/C=C/c1ccc(OCCn2cnc3ccccc32)c(OC)c1 [PubChem CID 5769972]	10 µM	slow down	
Clc1ccc(OCCSCc2nc3ccccc3[nH]2)cc1 [PubChem CID 1589789]	20 µM	slow down	
CCCOc1ccc(CSc2nc3ccccc3[nH]2)cc1 [PubChem CID 1653621]	80 µM	slow down	
